PMC4033665 (Journal of Medicinal Chemistry, 2014)
“Also recorded” adds a separate entry of the source. Where two headings read alike, the source gives them in different places.

What was measured:
HL-60 cells = assay: apoptosis by annexin-V / PI double staining, flow cytometry, HL-60; assay type: cell-based, human; settings: for induction of apoptosis in HL-60 (in words) / apoptotic cells (early + late): 20 h
[1] = system: Eμ-myc/Bcl-2 lymphoma cells; assay: cell death; assay type: cell-based, mice; settings: 15–18 h, increasing concentrations
[2] = system: Eμ-myc/Mcl-1 lymphoma cells; assay: cell death; assay type: cell-based, mice; settings: 15–18 h, increasing concentrations
human Mcl-1 [3] = biological target: T1, human Mcl-1 (Homo sapiens, UniProt Q07820); assay: 1H,15N-HSQC NMR chemical shift perturbation of Mcl-1; assay type: binding; settings: 15N-labeled Mcl-1 75 μM, Mcl-1:compound 1:1 and 1:2
human Mcl-1 [4] = biological target: T1, human Mcl-1; assay type: binding; settings: for improved binding compared to 1: reference compound 1
human Mcl-1 [5] = biological target: T1, human Mcl-1; assay type: binding; settings: for improved binding in SPR assay compared to 3: reference compound 3; for decrease of binding in SPR assay compared to 10: reference compound 10
endogenous Mcl-1 protein = endogenous Mcl-1 protein (Homo sapiens, UniProt Q07820); assay: biotin-streptavidin pull-down with biotin-labeled Noxa in 2LMP whole cell lysate; settings: BL-Noxa 0.1 μM
[6] = system: caspase-3 activity in HL-60 cells; assay: caspase-3 fluorometric assay; assay type: cell-based, human; settings: for induction of caspase-3 activity (in words): HL-60, 20 h
Bcl-2 = settings: read-out: Ki against Bcl-2; cited from earlier work
Mcl-1 = settings: read-out: Ki of 53 to Mcl-1; cited from earlier work

T1 sequence (Q07820 171-327): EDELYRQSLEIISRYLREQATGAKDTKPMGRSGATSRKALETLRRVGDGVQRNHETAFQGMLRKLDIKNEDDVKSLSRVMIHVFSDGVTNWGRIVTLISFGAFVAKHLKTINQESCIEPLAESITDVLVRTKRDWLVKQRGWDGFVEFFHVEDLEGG
endogenous Mcl-1 protein, sequence (Q07820 whole entry): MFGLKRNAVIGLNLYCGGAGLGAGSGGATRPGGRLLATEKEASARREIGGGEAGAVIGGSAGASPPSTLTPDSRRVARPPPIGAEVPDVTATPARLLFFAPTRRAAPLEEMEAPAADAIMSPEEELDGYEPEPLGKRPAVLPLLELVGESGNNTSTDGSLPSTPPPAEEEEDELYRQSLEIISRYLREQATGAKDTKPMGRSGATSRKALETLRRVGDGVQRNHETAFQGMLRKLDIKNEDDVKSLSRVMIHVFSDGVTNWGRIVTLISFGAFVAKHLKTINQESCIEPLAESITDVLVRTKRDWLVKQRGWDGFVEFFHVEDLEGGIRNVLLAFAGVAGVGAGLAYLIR

COC(=O)C[C@H](NC(=O)[C@H](C)NC(=O)[C@@H](NC(=O)OCc1ccccc1)C(C)C)C(=O)CF (racemic) [Z-VAD-FMK, Z-Val-Ala-DL-Asp-fluoromethylketone, reference compound]
effect of Z-VAD-FMK alone on cells (HL-60 cells; HL-60, Figure S7): has no effect on cells

CC1(C)CCC(c2ccc(Cl)cc2)=C(CN2CCN(c3ccc(C(=O)NS(=O)(=O)c4ccc(N[C@H](CCN5CCOCC5)CSc5ccccc5)c(S(=O)(=O)C(F)(F)F)c4)cc3)CC2)C1 [ABT-263, reference compound]
sensitivity of lymphoma cells overexpressing Bcl-2 to induced cell death [1]: sensitive
sensitivity of lymphoma cells overexpressing Mcl-1 to induced cell death [2]: insensitive

CS(=O)(=O)Nc1cc(SCC(=O)O)c(O)c2ccccc12 [Compound 2, 2-((1-Hydroxy-4-(methylsulfonamido)naphthalen-2-yl)thio)acetic Acid]
chemical shift perturbation of Mcl-1 backbone residues (HSQC NMR, in words) (human Mcl-1 [3]): lack of chemical shift perturbation

CC(C)(C)c1ccc(S(=O)(=O)Nc2cc(SCC(=O)O)c(O)c3ccccc23)cc1 [Compound 7]
improved binding in FP assay compared to 3 (human Mcl-1 [4]; reference compound 3): 4.5 fold
improved binding in SPR assay compared to 3 (human Mcl-1 [5]): 1.5 fold

O=C(O)CSc1cc(NS(=O)(=O)c2ccc(Br)cc2)c2ccccc2c1O [Compound 10, 2-((4-(4-Bromophenylsulfonamido)-1-hydroxynaphthalen-2-yl)thio)acetic Acid]
improved binding compared to 1 (human Mcl-1 [4]): 7 fold
improved binding in FP assay compared to 3 (human Mcl-1 [4]; reference compound 3): 7 fold
improved binding in SPR assay compared to 3 (human Mcl-1 [5]): 5 fold
binding of BL-Noxa to Mcl-1 after preincubation (pull-down, Western blot) (endogenous Mcl-1 protein): completely blocked

COc1ccc(S(=O)(=O)Nc2cc(SCC(=O)O)c(O)c3ccccc23)cc1 [Compound 11, 2-((1-Hydroxy-4-(4-methoxyphenylsulfonamido)naphthalen-2-yl)thio)acetic Acid]
decreased binding in FP assay compared to 3 (human Mcl-1 [4]): 3 fold

O=C(O)CSc1cc(NS(=O)(=O)c2ccc(-c3ccccc3)cc2)c2ccccc2c1O [Compound 16, 2-((4-([1,1′-Biphenyl]-4-ylsulfonamido)-1-hydroxynaphthalen-2-yl)thio)acetic Acid]
improved binding in FP assay compared to 3 (human Mcl-1 [4]): 10 fold
improved binding in SPR assay compared to 3 (human Mcl-1 [5]): 6 fold

O=C(O)CSc1cc(NS(=O)(=O)c2cccc(-c3ccccc3)c2)c2ccccc2c1O [Compound 17, 2-((4-([1,1′-Biphenyl]-3-ylsulfonamido)-1-hydroxynaphthalen-2-yl)thio)acetic Acid]
improved binding in FP assay compared to 3 (human Mcl-1 [4]; reference compound 3): 10 fold
improved binding in SPR assay compared to 3 (human Mcl-1 [5]): 6 fold

O=C(O)CSc1cc(NS(=O)(=O)c2ccc(-c3ccc(Cl)cc3)cc2)c2ccccc2c1O [Compound 19, 2-((4-(4′-Chloro-[1,1′-biphenyl]-4-ylsulfonamido)-1-hydroxynaphthalen-2-yl)thio)acetic Acid]
less potent than 53 (Mcl-1 binding) (human Mcl-1 [4]): 3 fold
improved binding compared to 1 (human Mcl-1 [4]): 9 fold
improved binding in FP assay compared to 3 (human Mcl-1 [4]; reference compound 3): 21 fold
improved binding in SPR assay compared to 3 (human Mcl-1 [5]): 14 fold
sensitivity of lymphoma cells overexpressing Bcl-2 to induced cell death [1]: ineffective
induction of caspase-3 activity (in words) [6]: induce activation of caspase-3 activity in a dose-dependent manner; also recorded: induced activation of caspase-3
sensitivity of lymphoma cells overexpressing Mcl-1 to induced cell death [2]: significantly sensitive
binding of BL-Noxa to Mcl-1 after preincubation (pull-down, Western blot) (endogenous Mcl-1 protein): completely blocked

O=C(O)CSc1cc(NS(=O)(=O)c2ccc(Oc3ccccc3)cc2)c2ccccc2c1O [Compound 21, 2-((1-Hydroxy-4-(4-phenoxyphenylsulfonamido)naphthalen-2-yl)thio)acetic Acid]
less potent than 53 (Mcl-1 binding) (human Mcl-1 [4]): 3 fold
sensitivity of lymphoma cells overexpressing Bcl-2 to induced cell death [1]: ineffective
induction of caspase-3 activity (in words) [6]: induce activation of caspase-3 activity in a dose-dependent manner; also recorded: induced activation of caspase-3
concentration at which activation of caspase-3 starts ([6]; HL-60, over a 24 h period): 2.5 µM
sensitivity of lymphoma cells overexpressing Mcl-1 to induced cell death [2]: significantly sensitive
binding of BL-Noxa to Mcl-1 after preincubation (pull-down, Western blot) (endogenous Mcl-1 protein): completely blocked
induction of apoptosis in HL-60 (in words) (HL-60 cells; 2.5, 5.0 and 10 μM): effectively induced apoptosis in a dose-dependent manner
concentration at which induction of apoptosis starts (HL-60 cells; HL-60): 2.5 µM
apoptotic cells (early + late) (HL-60 cells; HL-60, 5.0 μM): 37.8%
apoptotic cells (early + late) (HL-60 cells; HL-60, 10 μM): 78.4%

O=C(O)CSc1cc(NS(=O)(=O)N2CCN(c3ccccc3)CC2)c2ccccc2c1O [Compound 23, 2-((1-Hydroxy-4-(4-phenylpiperazine-1-sulfonamido)naphthalen-2-yl)thio)acetic Acid]
decrease in binding in FP assay in comparison with 16 (human Mcl-1 [4]): 6 fold
decrease in binding in SPR assay in comparison with 16 (human Mcl-1 [5]; reference compound 16): 8 fold

O=C(O)CSc1cc(NC(=O)c2ccc(Br)cc2)c2ccccc2c1O [Compound 25, 2-((4-(4-Bromobenzamido)-1-hydroxynaphthalen-2-yl)thio)acetic Acid]
decrease of binding in FP assay compared to 10 (human Mcl-1 [4]): 83 fold

O=C(O)CSc1cc(NS(=O)(=O)Cc2ccc(Cl)cc2)c2ccccc2c1O [Compound 26, 2-((4-((4-Chlorophenyl)methylsulfonamido)-1-hydroxynaphthalen-2-yl)thio)acetic Acid]
decreased binding affinity (FP) relative to 9 (human Mcl-1 [4]; reference compound 9): 6 fold

O=C(O)CSc1cc(CNS(=O)(=O)c2ccccc2)c2ccccc2c1O [Compound 27]
decreased binding in FP assay compared to 3 (human Mcl-1 [4]): 18 fold

O=S(=O)(Nc1ccc(O)c2ccccc12)c1ccccc1 [Compound 30]
did not show binding up to (FP assay, highest concentration tested) (human Mcl-1 [4]; competitive FP, Mcl-1): > 100 µM

CCCCSc1cc(NS(=O)(=O)c2ccc(Br)cc2)c2ccccc2c1O [Compound 31, 4-Bromo-N-(3-(butylthio)-4-hydroxynaphthalen-1-yl)benzenesulfonamide]
did not show binding up to (FP assay, highest concentration tested) (human Mcl-1 [4]; competitive FP, Mcl-1): > 100 µM

COC(=O)CSc1cc(NS(=O)(=O)c2ccc(Br)cc2)c2ccccc2c1O [Compound 32, Methyl 2-((4-(4-Bromophenylsulfonamido)-1-hydroxynaphthalen-2-yl)thio)acetate]
decrease of binding in FP assay compared to 10 (human Mcl-1 [4]; reference compound 10): 10 fold
decrease of binding in SPR assay compared to 10 (human Mcl-1 [5]): 6 fold

NC(=O)CSc1cc(NS(=O)(=O)c2ccc(Br)cc2)c2ccccc2c1O [Compound 33, 2-((4-(4-Bromophenylsulfonamido)-1-hydroxynaphthalen-2-yl)thio)acetamide]
decrease of binding in FP assay compared to 10 (human Mcl-1 [4]): 3 fold
decrease of binding in SPR assay compared to 10 (human Mcl-1 [5]): 2 fold

O=S(=O)(Nc1cc(SCc2nnn[nH]2)c(O)c2ccccc12)c1ccc(Oc2ccccc2)cc1 [Compound 37, N-(3-(((2H-Tetrazol-5-yl)methyl)thio)-4-hydroxynaphthalen-1-yl)-4-phenoxybenzenesulfonamide]
induction of apoptosis in HL-60 (in words) (HL-60 cells; 2.5, 5.0 and 10 μM): effectively induced apoptosis in a dose-dependent manner
apoptotic cells (early + late) (HL-60 cells; HL-60, 5.0 μM): 51.6%
apoptotic cells (early + late) (HL-60 cells; HL-60, 10 μM): 74.2%
induction of apoptosis in the presence of Z-VAD-FMK (in words) (HL-60 cells; HL-60, pretreated with 100 μM Z-VAD-FMK): significantly inhibited

COC(=O)CSc1cc(NS(=O)(=O)c2ccc(Br)cc2)c2ccccc2c1OC [Compound 41, Methyl 2-((4-(4-Bromophenylsulfonamido)-1-methoxynaphthalen-2-yl)thio)acetate]
did not show binding up to (FP assay, highest concentration tested) (human Mcl-1 [4]): > 100 µM
sensitivity of lymphoma cells overexpressing Bcl-2 to induced cell death [1]: did not show any activity
sensitivity of lymphoma cells overexpressing Mcl-1 to induced cell death [2]: did not show any activity
induction of apoptosis in HL-60 (in words) (HL-60 cells; 40 μM): has no effect on apoptosis induction

CC(=O)Oc1c(SCC(=O)O)cc(NS(=O)(=O)c2ccc(Br)cc2)c2ccccc12 [Compound 46, 2-((1-Acetoxy-4-(4-bromophenylsulfonamido)naphthalen-2-yl)thio)acetic Acid]
decrease of binding in FP assay compared to 10 (human Mcl-1 [4]; reference compound 10): 69 fold

COc1c(I)cc(C=O)c2ccccc12 [Compound 53]
Ki (Bcl-2): 0.87 µM
Ki (Mcl-1): 0.055 µM
